Eight compounds from ChEMBL document CHEMBL1201862, “PubChem BioAssay data set” (2004) can be followed below.

Each structure is given as a SMILES string.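 Five concentrations, 48 hours, 96-well plates. GI50 marks 50% less growth.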 The source made the active and inactive calls. Rule as the data show it: active = GI50 up to about 1.1 µM and inactive = higher. A value given as a limit tells only on which side of the number the result lay.

Common to all, as to assay: NCI anticancer screen, dose series, 48 h
Assay [1] concerns UACC-62.
Assay [2] concerns NCI-H226.
For assay [3], the system named is NCI/ADR-RES.
Assay [4] has as its system LOX IMVI.
Assay [5] concerns SK-MEL-28.
Assay [6] deals with MCF7.
Assay [7] deals with SNB-75.
Assay [8] concerns HOP-92.
In assay [9] the test system is HT-29.
Assay [10] relates to ACHN.
The test system of assay [11] is PC-3.
Assay [12] relates to CAKI-1.
Assay [13] concerns HL-60.
In assay [14] the test system is MDA-N.
The test system of assay [15] is SF-295.
The test system of assay [16] is SK-MEL-5.
Assay [17] has as its system HCC 2998.
In assay [18] the test system is M14.
Assay [19] deals with SK-OV-3.

For the compound `Clc1ccc(C2c3ccccc3-c3nc4ccccc4n32)cc1` (configuration not stated), the GI50 is 26.3 µM (inactive) in assay [1]; > 42.5 µM (inactive) in [2]; 11.8 µM (inactive) in [3]; 19.7 µM (inactive) in assay [4]; > 56.8 µM (inactive) in [5]; 18.3 µM (inactive) in [6]. Further, the GI50 in assay [7] is 24.3 µM (inactive); in assay [8] it was 34.8 µM (inactive); in assay [9], 20.9 µM (inactive); in assay [10] it was 23 µM (inactive); in assay [11], 19.4 µM (inactive); in assay [12], 37.1 µM (inactive). For the same compound, the GI50 was 3.65 µM (inactive) in assay [13]; 51.3 µM (inactive) in assay [14]; 3.48 µM (inactive) in [15]; 27.4 µM (inactive) in [16]; 18.9 µM (inactive) in assay [17]; 31.8 µM (inactive) in [18]. For the same compound, in [19], the GI50 was 3.34 µM (inactive).

With `Fc1ccc(/C=C2\COCC3=C2NC(=S)NC3c2ccc(F)cc2)cc1` (configuration not stated), the GI50 is 17.2 µM (inactive) in assay [1]; 21.1 µM (inactive) in assay [2]; 19.1 µM (inactive) in [3]; 19.9 µM (inactive) in [4]; 19.1 µM (inactive) in [6]; 22.2 µM (inactive) in [7]. Further, the GI50 in [8] was 18.7 µM (inactive); in assay [10] it was 37 µM (inactive); in assay [11], 17.3 µM (inactive); in [12], 31.1 µM (inactive); in assay [13], 10.5 µM (inactive); in assay [14], 17.6 µM (inactive). Moreover, the GI50 is 18.7 µM (inactive) in assay [15]; 19.4 µM (inactive) in assay [16]; 18.5 µM (inactive) in [17]; 16.4 µM (inactive) in assay [18]; 31 µM (inactive) in [19].

As for `COc1ccc(/C=C(\C(=O)OCC(C)C)c2ccc(OC)c(OC)c2)cc1OC`, the GI50 in assay [1] is > 100 µM (inactive); in assay [2], > 100 µM (inactive); in assay [3], > 100 µM (inactive); in assay [4] it was 74.6 µM (inactive); in assay [5], > 100 µM (inactive); in assay [6], > 100 µM (inactive). For the same compound, the GI50 was 47.2 µM (inactive) in assay [7]; > 100 µM (inactive) in assay [8]; > 100 µM (inactive) in assay [9]; > 100 µM (inactive) in assay [10]; > 100 µM (inactive) in [11]; > 100 µM (inactive) in [12]. Also, the GI50 is > 100 µM (inactive) in assay [13]; > 100 µM (inactive) in assay [14]; 69.5 µM (inactive) in [15]; > 100 µM (inactive) in [16]; > 100 µM (inactive) in assay [17]; 32.5 µM (inactive) in [18].

Take `Cc1ccc2nc(NC(=O)C(=O)C3C(=O)NC(=S)NC3=O)sc2c1`: the GI50 in assay [1], in [2], in assay [3], in assay [4], in assay [5] and in assay [6] was > 100 µM (inactive) throughout. In addition, the GI50 in [7], in [8], in assay [9], in [10], in assay [11] and in [12] was > 100 µM (inactive) each time. The GI50 in assay [13], in assay [14], in assay [15], in assay [16], in [17] and in assay [18] was > 100 µM (inactive) throughout. Besides, the GI50 in [19] is > 100 µM (inactive).

Regarding `CCOC(=O)c1nc2cc(C(F)(F)F)ccc2nc1Nc1cc(OC)c(OC)c(OC)c1`, the GI50 in [1], in assay [2], in [3], in assay [4], in assay [5] and in assay [6] was > 100 µM (inactive) each time. The GI50 in assay [7], in assay [8], in [9], in assay [10], in assay [11] and in [12] was > 100 µM (inactive) throughout. For the same compound, the GI50 in assay [13], in [14], in assay [15], in [16], in assay [17] and in assay [18] was > 100 µM (inactive) in each case. The GI50 in assay [19] is > 100 µM (inactive).

As to `COC(=O)CN1Cc2cc(C)cc(c2O)CN(CC(=O)OC)Cc2cc(C)cc(c2O)CN(CC(=O)OC)Cc2cc(C)cc(c2O)CN(CC(=O)OC)Cc2cc(C)cc(c2O)C1`, the GI50 was 39.6 µM (inactive) in assay [1]; 8.04 µM (inactive) in assay [2]; 19.5 µM (inactive) in assay [3]; 7.33 µM (inactive) in assay [4]; 21.9 µM (inactive) in assay [5]; 14.1 µM (inactive) in [6]. Moreover, the GI50 in [7] was 12.4 µM (inactive); in [8], > 50 µM (inactive); in assay [9], 8.79 µM (inactive); in assay [10] it was 11.5 µM (inactive); in [11] it was 18.5 µM (inactive); in assay [12], 24.2 µM (inactive). Moreover, the GI50 was 3.03 µM (inactive) in assay [13]; > 50 µM (inactive) in assay [14]; 17.5 µM (inactive) in assay [15]; 19.9 µM (inactive) in assay [16]; 13.6 µM (inactive) in assay [17]; 4.92 µM (inactive) in assay [18]. The GI50 in assay [19] was 11.9 µM (inactive).

Take `CCCS(=O)(=O)Nc1ccc(Nc2c3ccccc3nc3ccccc23)c(OC)c1`: the GI50 is 0.695 µM (active) in assay [1]; 1.46 µM (inactive) in assay [2]; 3.95 µM (inactive) in [3]; 0.315 µM (active) in assay [4]; 0.365 µM (active) in [6]; 1.04 µM (active) in [7]. The GI50 in [8] is 1.73 µM (inactive); in [9], 1.75 µM (inactive); in assay [10] it was 0.362 µM (active); in assay [11] it was 3.88 µM (inactive); in [12], 0.4 µM (active); in [13] it was 0.126 µM (active). The GI50 in assay [14] is 4.16 µM (inactive); in assay [15], 0.429 µM (active); in assay [16], 2 µM (inactive); in assay [17], 2.1 µM (inactive); in assay [18], 0.467 µM (active); in assay [19], 2.08 µM (inactive).

For the compound `O=[N+]([O-])/C(C(Cl)=C(Cl)Cl)=C(/Sc1ccccc1)N1CCOCC1`, the GI50 is 3.62 µM (inactive) in assay [1]; 11.4 µM (inactive) in assay [2]; 6.28 µM (inactive) in [3]; 1.53 µM (inactive) in [4]; 4.74 µM (inactive) in assay [5]; 2.57 µM (inactive) in assay [6]. For the same compound, the GI50 in assay [8] is 2.34 µM (inactive); in assay [9], 6.15 µM (inactive); in assay [10], 4.82 µM (inactive); in assay [11] it was 6.01 µM (inactive); in assay [12] it was 6.27 µM (inactive); in [13], 1.99 µM (inactive). The GI50 was 3.65 µM (inactive) in [14]; 19.5 µM (inactive) in [15]; 3 µM (inactive) in assay [16]; 15.3 µM (inactive) in assay [17]; 3 µM (inactive) in [18]; 34.8 µM (inactive) in assay [19].
